Source: patent US12366579B2, “Sulfur-heterocycle exchange chemistry and uses thereof” (University of Virginia Patent Foundation, priority 2019, dated 2025)

Experiments:
[1] = HPLC assay, n-butylamine reactivity against a sulfonyl probe mixture; type: physicochemical; conditions: TMG 3.3 equivalents
Description: The following reagents were prepared and kept at 0° C. prior to use: 0.1 M solution of caffeine in acetonitrile (ACN), 1.0 M solution of n-butylamine, p-cresol, tetramethylguanidine (TMG), acetic acid in ACN, and 10 mM solution of the probes in a mixture of DMF-ACN (v/v=10:90) are made.
(ii) n-Butylamine reactivity against a probe mixture: Reactivity of sulfonyl probes against n-butylamine (3.3 eq) was performed as described above except the amount of TMG was fixed at 3.3 eq.

[2] = test system: human cell proteomes (HEK293T, A549, DM93, H82, and Jurkat cells); experiment: LC-MS chemical proteomics of probe-modified tyrosine sites across 5 cell proteomes; type: binding; conditions: HHS-465 and -475 together; 100 μM, 1 hr, 25° C.
Description: Proteomes were diluted to 2.3 mg/mL in PBS and sample aliquots (432 μL) were treated with sulfonyl-triazole or -fluoride probes at the indicated concentrations (5 μL, 100× stock in DMSO), mixed gently and incubated for 1 h at room temperature. Probe-modified proteomes were subjected to CuAAC conjugation to desthiobiotin-PEG3-azide (10 μL of 10 mM stock in DMSO; final concentration of 200 μM) using TCEP (10 μL of fresh 50 mM stock in water; 1 mM final concentration), TBTA ligand (33 μL of a 1.7 mM 4:1 t-butanol/DMSO stock, 100 μM final concentration), and CuSO4 (10 μL of 50 mM stock, 1 mM final concentration). Samples were mixed by vortexing and then incubated for 1 h at room temperature. Excess reagents were removed by chloroform-methanol extraction as previously described^51. Protein pellets were re-suspended in 500 μL of 6M urea/25 mM ammonium bicarbonate followed by DTT reduction and IAA alkylation as previously described^5. Excess reagents were removed by chloroform/methanol extraction as described above, and the protein pellet was re-suspended in 500 μL of 25 mM ammonium bicarbonate and then digested to peptides using trypsin/Lys-C (7.5 μg in 15 μL of ammonium bicarbonate, sequencing grade from Promega, Madison, Wisconsin, United States of America) was added to the mixture and incubated for 3 hrs at 37° C. […]

HEK293T, Jurkat cells = experiment: Live cell chemical proteomic profiling with SuTEx probes; type: cell-based, human; conditions: 100 μM, 2 hr, 37° C.; membrane and soluble fractions; both probes
Description: Cells grown to ˜90% confluency in 10 cm plates were treated with DMSO vehicle or sulfonyl-triazole probe (10 μL of 1000×DMSO stock) in serum-free media for the indicated concentrations and times at 37° C. with 5% CO2. After treatment, cells were washed with cold PBS twice before harvesting and preparation for gel-based chemical proteomic evaluation as described above. For LC-MS studies, protein concentrations were normalized to 2.3 mg/mL and 432 μL (for 1 mg final protein amount) were used for sample preparation as detailed below.
Proteomes were diluted to 2.3 mg/mL in PBS and sample aliquots (432 μL) were treated with sulfonyl-triazole or -fluoride probes at the indicated concentrations (5 μL, 100× stock in DMSO), mixed gently and incubated for 1 h at room temperature. Probe-modified proteomes were subjected to CuAAC conjugation to desthiobiotin-PEG3-azide (10 μL of 10 mM stock in DMSO; final concentration of 200 μM) using TCEP (10 μL of fresh 50 mM stock in water; 1 mM final concentration), TBTA ligand (33 μL of a 1.7 mM 4:1 t-butanol/DMSO stock, 100 μM final concentration), and CuSO4 (10 μL of 50 mM stock, 1 mM final concentration). Samples were mixed by vortexing and then incubated for 1 h at room temperature. Excess reagents were removed by chloroform-methanol extraction as previously described^51. […]

[3] = HPLC reactivity assay with glutathione (GSH stability); type: physicochemical; conditions: 5×GSH, basic conditions (TMG)
Description: Glutathione (GSH) adduction to compounds is a mechanism of metabolism for compounds administered to animals and humans. Accordingly, an HPLC reactivity assay^72 was performed to evaluate whether sulfonyl-triazoles (HHS-475) react with GSH. HHS-475 (see Example 1) was used as an exemplary SuTEx compound. Initially, the HPLC assay was used to monitor the rapid reaction of HHS-475 with the model nucleophile p-cresol (as a mimic of the tyrosine side chain) under basic conditions (TMG). […] The 5×GSH was used because GSH is typically found at high concentrations in vivo.

C#CCNC(=O)c1ccc(S(=O)(=O)n2cncn2)cc1 [HHS-475, 4-((1H-1,2,4-Triazol-1-yl)sulfonyl)-N-(prop-2-yn-1-yl)benzamide]
time to complete reaction with n-butylamine [1]: 6 h | tyrosine sites identified in aggregate across 5 cell proteomes [2]: ~8,000 sites | distinct tyrosine sites measured in live cell studies, in total per cell line (HEK293T, Jurkat cells): ~3,500 sites | reaction with GSH [3]: negligible reaction
